Source: patent US4864018A, “Anthraquinone derivatives and their use as protein absorbents” (Imperial Chemical Industries PLC, priority 1985, dated 1989)

Molecular target: T1, horse liver alcohol dehydrogenase (Equus caballus, UniProt P00327)
T1 construct: from tissue; host or cells: horse liver
Test: affinity of binding with horse liver alcohol dehydrogenase: reduction in rate of enzyme de-activation by CI Reactive Blue 4 in competition with dye
Details: carboxylate (i), (ii), (iii) versus sulphonate (iv), (v), (vi) respectively
Protocol: Three dyes of Formula I, in which the COOH group on Ring A is in the ortho (o), meta (m) and para (p) positions respectively, (i), (ii) and (iii) in Table 2, and three analogues in which the COOH groups are replaced by SO3 H groups, (iv), (v) and (vi) in Table 2, were assessed by affinity of binding with horse liver alcohol dehydrogenase. The assessment procedure comprised measuring the reduction in rate of enzyme de-activation by CI Reactive Blue 4 (a highly reactive, dichlorotriazine dye which rapidly deactivates horse liver alcohol dehydrogenase) when of dyes (i) to (vi) was allowed to compete with CI Reactive Blue 4 for the enzyme. From the reductions in rate observed the dissociation constants, KD, of the [enzyme-dye] combinations were calculated and these values are listed in Table 2.

T1 sequence (P00327 2-375 limits assumed): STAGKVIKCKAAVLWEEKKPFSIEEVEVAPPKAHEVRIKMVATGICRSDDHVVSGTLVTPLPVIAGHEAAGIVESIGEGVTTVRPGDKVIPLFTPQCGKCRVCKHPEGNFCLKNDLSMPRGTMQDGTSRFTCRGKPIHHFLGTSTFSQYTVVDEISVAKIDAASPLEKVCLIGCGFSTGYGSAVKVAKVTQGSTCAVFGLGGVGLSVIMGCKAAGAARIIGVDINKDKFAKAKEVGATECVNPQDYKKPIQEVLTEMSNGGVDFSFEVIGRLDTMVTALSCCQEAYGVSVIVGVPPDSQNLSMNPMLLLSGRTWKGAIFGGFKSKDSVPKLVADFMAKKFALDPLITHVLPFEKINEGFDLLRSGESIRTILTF

binding affinity compared with the corresponding sulphonate analogue | Compound
markedly and surprisingly higher | Nc1c(S(=O)(=O)O)cc(Nc2ccc(Nc3nc(Cl)nc(Nc4ccc(C(=O)O)cc4)n3)c(S(=O)(=O)O)c2)c2c1C(=O)c1ccccc1C2=O [(iii)]
markedly and surprisingly higher | Nc1c(S(=O)(=O)O)cc(Nc2ccc(Nc3nc(Cl)nc(Nc4cccc(C(=O)O)c4)n3)c(S(=O)(=O)O)c2)c2c1C(=O)c1ccccc1C2=O [(ii)]
markedly and surprisingly higher | Nc1c(S(=O)(=O)O)cc(Nc2ccc(Nc3nc(Cl)nc(Nc4ccccc4C(=O)O)n3)c(S(=O)(=O)O)c2)c2c1C(=O)c1ccccc1C2=O [(i)]
